From patent US6344476B1, “Inhibition of p38 kinase activity by aryl ureas” (Bayer Corporation, priority 1997, dated 2002)

melting point	SMILES
203 to 204 °C	CNC(=O)c1sc(C(C)(C)C)cc1NC(=O)Nc1ccc(F)cc1 [Example 25, N-(2-methylcarbamoyl-5-tert-butyl-3-thienyl)-N′-(4-fluorophenyl)urea]
101 to 104 °C	CCc1ccc(NC(=O)Nc2cc(C(C)(C)C)sc2C(=O)NC)cc1 [Example 23, N-(2-Methylcarbamoyl-5-tert-butyl-3-thienyl)-N′-(4ethylphenyl)urea]
78 to 79 °C	COC(=O)c1oc(C(C)(C)C)cc1NC(=O)Nc1ccc(C)cc1 [Example 32, N-(2-carbomethoxy-5-tert-butyl-3-furyl)-N′-(4-methylphenyl)urea]
182 to 183 °C	CNC(=O)c1sc(C(C)(C)C)cc1NC(=O)Nc1ccc(C)c(F)c1 [Example 29, N-(2-Methylcarbamoyl-5-tert-butyl-3-thienyl)-N′-(3-fluoro4-methylphenyl)urea]
171 to 172 °C	COC(=O)c1c(NC(=O)Nc2ccc(C)cc2)cc(C(C)(C)C)n1C [Example 40, N-(N-methyl-2-carbomethoxy-5-tert-butyl-3-pyrrolyl)-N′-(4-methylphenyl)urea]
109 to 111 °C	CNC(=O)c1oc(C(C)(C)C)cc1NC(=O)Nc1ccc(F)cc1 [Example 36, N-(2-methylcarbamoyl-5-tert-butyl-3-furyl)-N′-(4-fluorophenyl)urea]
257 to 258 °C	COC(=O)c1[nH]c(C(C)(C)C)cc1NC(=O)Nc1ccc(C)cc1 [Example 38, N-(2carbomethoxy-5-tert-butyl-3-pyrrolyl)-N′-(4-methyl-phenyl)urea]
160 to 162 °C	COC(=O)c1sc(C(C)(C)C)cc1NC(=O)Nc1ccc(F)cc1 [Example 54, N-(2-carbomethoxy-5-tert-butyl-3-thienyl)-N′-(4-fluorophenyl)urea]
262 to 263 °C (dec.)	COC(=O)c1[nH]c(C(C)(C)C)cc1NC(=O)Nc1ccccc1 [Example 37, N-(2-Carbomethoxy-5-tert-butyl-3-pyrrolyl)-N′-(phenyl)urea]
93 to 96 °C	Cc1ccc(NC(=O)Nc2cc(C(C)(C)C)sc2CNC(=O)CN)cc1 [Example 51, N-(2-(N-glycylaminomethyl)-5-tert-butyl-3-thienyl)-N′-(4-methylphenyl)urea]
113 to 120 °C	CNC(=O)c1sc(C(C)(C)C)cc1NC(=O)Nc1ccc(C(C)C)cc1 [Example 24, N-(2-Methylcarbamoyl-5-tert-butyl-3-thienyl)-N′-(4-isopropylphenyl)urea]
49 to 51 °C	COC(=O)c1cc(C(C)C)sc1NC(=O)Nc1ccc(C)cc1 [Example 42, N-(3-carbomethoxy-5-isopropyl-2-thienyl)-N′-(4-methylphenyl)urea]
178 to 179 °C	CNC(=O)c1sc(C(C)(C)C)cc1NC(=O)Nc1ccc(C)c(Cl)c1 [Example 28, N-(2-Methylcarbamoyl-5-tert-butyl-3-thienyl)-N′-(3-chloro-4-methylphenyl)urea]
195 to 196 °C	CNC(=O)c1sc(C(C)(C)C)cc1NC(=O)Nc1ccc(C)cc1C [Example 27, N-(2-Methylcarbamoyl-5-tert-butyl-3-thienyl)-N′-(2,4-dimethylphenyl)urea]
202 to 204 °C	CNC(=O)c1sc(C(C)(C)C)cc1NC(=O)Nc1ccc(C)cc1 [Example 22, N-(2-methylcarbamoyl-5-tert-butyl-3-thienyl)-N′-(4-methylphenyl)urea]
203 to 205 °C	CC(=O)NCc1sc(C(C)(C)C)cc1NC(=O)Nc1ccc(C)cc1 [Example 50, N-(2-(N-Acetylaminomethyl)-5-tert-butyl-3-thienyl)-N′-(4-methylphenyl)urea]
64 to 65 °C	COC(=O)c1cc(C(C)C)sc1NC(=O)Nc1ccccc1 [Example 41, N-(3-Carbomethoxy-5-isopropyl-2-thienyl)-N′-(phenyl)urea]
108 to 110 °C	COC(=O)c1sc(C(C)C)cc1NC(=O)Nc1ccccc1 [Example 1, N-(2-carbomethoxy-5-isopropyl-3-thienyl)-N′-(phenyl)urea]
195 to 197 °C	COC(=O)c1oc(C(C)(C)C)cc1NC(=O)Nc1cccc(Cl)c1Cl [Example 34, N-(2-Carbomethoxy-5-tert-butyl-3-furyl)-N′-(2,3-dichlorophenyl)urea]
203 to 204 °C	CNC(=O)c1sc(C(C)(C)C)cc1NC(=O)Nc1ccc(F)c(Cl)c1 [Example 30, N-(2-Methylcarbamoyl-5-tert-butyl-3-thienyl)-N′-(3chloro-4-fluorophenyl)urea]
109 to 111 °C	COC(=O)c1cc(C(C)(C)C)sc1NC(=O)Nc1ccc(C)cc1 [Example 44, N-(3-carbomethoxy-5-tert-butyl-2-thienyl)-N′-(4-methylphenyl)urea]
70 to 72 °C	COC(=O)c1sc(C(C)(C)C)cc1NC(=O)Nc1cccc(C)c1 [Example 9, N-(2-Carbomethoxy-5-tert-butyl-3-thienyl)-N′-(3-methylphenyl)urea]
118 to 120 °C	COC(=O)c1sc(C(C)(C)C)cc1NC(=O)Nc1ccc(C)s1 [Example 14, N-(2-Carbomethoxy-5-tert-butyl-3-thienyl)-N′-(5-methyl-2-thienyl)urea]
80 to 82 °C	COC(=O)c1cc(C(C)(C)C)sc1NC(=O)Nc1ccccc1 [Example 43, N-(3-Carbomethoxy-5-tert-butyl-2-thienyl)-N′-(phenyl)urea]
164 to 166 °C	CNC(=O)c1[nH]c(C(C)(C)C)cc1NC(=O)Nc1ccc(C)cc1 [Example 113, N-(2-methylcarbamoyl-5-tert-butyl-3-pyrrolyl)-N′-(4-methylphenyl)urea]

SMILES	melting point
Cc1ccc(NC(=O)Nc2cc(C(C)(C)C)sc2CNC(=O)CNC(=O)OC(C)(C)C)cc1 [Example 52, N-(2-(N-(N-carbo-tert-butoxyglycyl)aminomethyl)-5-tert-butyl-3-thienyl)-N′-(4-methylphenyl)urea]	174 to 176 °C
